The experiment addresses Beta-2 adrenergic receptor (Homo sapiens, UniProt P07550). The experiment is described as follows: Binding affinity to immobilized Halo tag-fused beta2 adrenoceptor (unknown origin) expressed in Escherichia coli BL21 (DE3) assessed as dissociation rate constant by receptor chromatography.

Experimental findings from BindingDB's records for PubMed 35227979 (Northwest University, 2022) are described below.

Sequence of Beta-2 adrenergic receptor (P07550 whole entry, the tested form may be a part): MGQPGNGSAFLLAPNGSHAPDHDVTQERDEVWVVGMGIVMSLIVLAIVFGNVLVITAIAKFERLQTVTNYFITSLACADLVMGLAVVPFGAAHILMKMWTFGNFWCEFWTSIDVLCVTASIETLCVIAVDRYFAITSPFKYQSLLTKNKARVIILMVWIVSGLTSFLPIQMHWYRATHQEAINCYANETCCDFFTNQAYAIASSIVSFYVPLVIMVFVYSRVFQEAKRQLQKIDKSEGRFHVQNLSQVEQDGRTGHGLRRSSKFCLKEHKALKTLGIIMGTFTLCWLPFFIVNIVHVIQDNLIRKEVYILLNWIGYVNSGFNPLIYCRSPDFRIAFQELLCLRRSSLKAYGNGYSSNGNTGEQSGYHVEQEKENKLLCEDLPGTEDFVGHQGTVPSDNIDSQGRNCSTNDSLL

As for `CC1(C)[C@@H](O)CC[C@]2(C)[C@H]3C(=O)C=C4[C@@H]5C[C@@](C)(C(=O)NCCc6ccc(O)cc6)CC[C@]5(C)CC[C@@]4(C)[C@]3(C)CC[C@@H]12`, the Kd is 7.5 nM.
On to `CNC(C)Cc1ccccc1OC` (configuration not stated) [Methoxyphenamine], for which the dissociation constant (Kd) was 0.98 nM.

The Kd is the constant that tells how readily two partners part at equilibrium.
